Results on 15 molecules are retold here after paper PMC11054337, “Identification of Leishmania donovani PEX5-PTS1 Interaction Inhibitors through Fluorescence Polarization-Based High-Throughput Screening” (Molecules, 2024).

The subject of experiment [1] is L. donovani promastigotes. The experiment is described as follows: L. donovani promastigote growth inhibition (resazurin). The settings on record: for IC50: 72 h exposure, three independent replicates, read-out: L. donovani IC50 ± SD. It is filed as cell-based, Leishmania donovani. On the procedure:
(§1) All the restriction enzymes used in this study were sourced from New England BioLabs (240 County Road Ipswich, Ipswich, MA, USA). The PTS1 peptides, both unlabeled and fluorescently labeled at the N-terminus with fluorescein isothiocyanate (FITC), were purchased from Peptron (Daejeon, Republic of Korea). All the inhibitors were purchased from Enamine (Kyiv, Ukraine). L. donovani strain MHOM/SD/62/1S-CL2D and L. major strain LV39 (MRHO/Sv/59/P) were cultured in their extracellular promastigote forms. The parasite was cultured at 28 °C using M199 medium (Sigma-Aldrich, St. Louis, MO, USA) supplemented with 40 mM HEPES, 0.1 mM adenine, 0.0001% biotin, and 4.62 mM NaHCO3, along with additional supplements of hemin and xanthine. The T. brucei brucei Lister strain 427 in its bloodstream form (BSF) was cultured at 37 °C in a controlled atmosphere consisting of 5% CO2 in HMI-9 medium enriched with 10% fetal bovine serum (FBS), 100 µg/mL penicillin, and 100 µg/mL streptomycin. The parasites were maintained through only 10 passages for this study.
(§2) Briefly, the assays were conducted in 384-well plates, each well was seeded with 5 × 10^4 parasites, and the compounds were exposed for 72 h. The compounds were tested in dose-diluted format, starting from 100 μM with a two-fold dilution across 10 points. Subsequently, resazurin was added to each well to achieve a final concentration of 200 μM. The plates were then incubated for an additional 5 h before fixation. The assay results were recorded using a Victor3 plate reader (PerkinElmer, Shelton, CT, USA). For the assessment against L. donovani intracellular amastigotes, phorbol 12-myristate 13-acetate-treated THP-1 cells were seeded at 0.8 × 10^4 cells per well in a 384-well plate in RPMI-1640 complete medium supplemented with 10% FBS. After 48 h, the infection was carried out using L. donovani promastigotes with a multiplicity of infection of 10:1. The infected cells were treated with compounds for 72 h, then the cells and parasites were washed, stained with 5 µM 4′,6-diamidino-2-phenylindole (DAPI), and fixed with 4% paraformaldehyde. Images were acquired using Operetta® CLS™ (PerkinElmer, Shelton, CT, USA), and the numbers of parasites and host cells were quantified using Columbus™ software version 2.8 (PerkinElmer, Shelton, CT, USA).
(§3) All half-maximal inhibitory concentration (IC50) values were determined based on data obtained from three independent experiments. The dose–response curves were generated and analyzed using GraphPad Prism 6 software (GraphPad Software, San Diego, CA, USA). For the analysis, a sigmoidal dose–response equation was employed, incorporating a variable hill slope option.

In experiment [2] the test system is L. major promastigotes. The experiment is described as follows: L. major promastigote growth inhibition (resazurin). It is filed as cell-based, Leishmania major. The settings on record: for IC50: 72 h exposure, three independent replicates, read-out: L. major IC50 ± SD. The protocol:
as §1, §2, §3

The test system of experiment [3] is T. brucei BSF. Kind of experiment: T. brucei BSF growth inhibition (resazurin). Conditions: for IC50: Trypanosoma brucei, blood stream form, 72 h exposure, three independent replicates, read-out: T. brucei IC50 ± SD; for Growth inhibition of T. brucei (in words): BSF. It is filed as cell-based, Trypanosoma brucei. The protocol:
as §1, §2, §3

Experiment [4] deals with T1, LdPEX5-PTS1 interaction (Leishmania donovani, UniProt A0A3S7X906).
T1 construct: encoding LdPEX5CT, corresponding to 322 amino acids (AF198051.1: 303-625), was synthesized; 6xHis (pET15b) (N); made in house; host or cells: Escherichia coli BL21 (DE3)
T1 sequence (A0A3S7X906 entry or part of it): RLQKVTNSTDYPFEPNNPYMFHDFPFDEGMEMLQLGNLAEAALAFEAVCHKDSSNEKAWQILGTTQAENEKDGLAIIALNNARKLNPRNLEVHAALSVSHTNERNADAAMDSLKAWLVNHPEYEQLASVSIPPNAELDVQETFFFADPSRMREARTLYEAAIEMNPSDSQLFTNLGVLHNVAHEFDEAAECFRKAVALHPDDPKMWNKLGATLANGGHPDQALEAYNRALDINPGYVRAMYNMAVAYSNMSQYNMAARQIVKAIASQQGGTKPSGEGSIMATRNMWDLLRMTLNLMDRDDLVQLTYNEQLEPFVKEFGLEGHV
Kind of experiment: biochemical. Conditions: 1 µM LdPEX5, 5 nM FITC-SGAGSKL. It is filed as binding. On the procedure: HTS using FP was conducted to identify inhibitors of the LdPEX5-PTS1 interaction. The screening utilized an in-house compound library comprising 51,406 compounds with diverse structural profiles. All compounds were initially solubilized in 100% DMSO with a concentration of 2 mM, and the final testing concentration in the assay was set at 20 μM. DMSO served as the negative control, while unlabeled PTS1 peptide (TRYPAKL) was used as the positive control. The assay mixture included FITC-SGAGSKL peptide and LdPEX5 at final concentrations of 5 nM and 1 μM, respectively. The reaction plates with compounds were incubated for 1 h at room temperature before FP signal detection. Single-point inhibition assays were performed, and the Z’ factor was employed to assess the quality of the assay. The Z’ factor was calculated using the formula Z′ = 1 − 3(σp + σn)/(μp − μn), where σp and σn are the standard deviations of the positive and negative controls, respectively, and μp and μn represent their respective mean values.
as §3

Experiment [5] relates to L. donovani intracellular amastigotes. The experiment is described as follows: L. donovani intracellular amastigote assay in THP-1 cells (image-based). It is filed as cell-based, Leishmania donovani. The settings on record: infected THP-1 cells, 72 h treatment. The protocol:
as §2

[6] abbreviates: 1 h, three independent replicates, read-out: LdPEX5-PTS1 Inhibition IC50 ± SD.
Setting [7] is: IC50 of unlabeled PTS1 peptides, peptide from 60 µM half dilution 10 points.

Several values for one entry are separate records, joined by “and”; a condition that tells them apart may be missing. Equal values may be shown once. Read-outs that look alike come from different tables or passages of the source. No end group written: not given here. Some results are limits rather than exact numbers.

Regarding `C[C@@H]1[C@H](O)[C@@H](C)/C=C/C=C/C=C/C=C/C=C/C=C/C=C/[C@H](O[C@@H]2O[C@H](C)[C@@H](O)[C@H](N)[C@@H]2O)C[C@@H]2O[C@](O)(C[C@@H](O)C[C@@H](O)[C@H](O)CC[C@@H](O)C[C@@H](O)CC(=O)O[C@H]1C)C[C@H](O)[C@H]2C(=O)O` [Amphotericin B, reference compound], the half-inhibitory concentration (IC50) in experiment [1] (Leishmania donovani, 72 h) was 0.42 ± 0.03 µM.

In the case of `CCCCCCCCCCCCCCCCOP(=O)([O-])OCC[N+](C)(C)C` [Miltefosine, reference compound], the IC50 in experiment [2] (Leishmania major, 72 h) stood at 7.37 ± 1.67 µM.

Turning to `CN(C)c1ccc(Nc2cnc3ccccc3n2)cn1` [P02], the concentration for half-maximal inhibition (IC50) in experiment [3] was more than 50 µM; in experiment [1] (Leishmania donovani, 72 h), more than 50 µM; in experiment [4] (setting [6]), 23.6 ± 0.86 µM; in experiment [2] (Leishmania major, 72 h) it was more than 50 µM.

With `Cn1ncc(-c2nc3cc(S(N)(=O)=O)ccc3[nH]2)n1` [P04, 2-(2-methyl-2H-1,2,3-triazol-4-yl)-1H-benzo[d]imidazole-5-sulfonamide], the 50% inhibitory concentration (IC50) in experiment [3] was 12.1 ± 2.19 µM; in experiment [1] (Leishmania donovani, 72 h) it was more than 50 µM; in experiment [4] (setting [6]) it was 14.6 ± 0.76 µM; in experiment [2] (Leishmania major, 72 h), more than 50 µM.

As to `COc1ccc(NC(=O)C2(S(=O)(=O)c3ccc(Cl)cc3)CCCC2)cn1` [P08, 1-((4-chlorophenyl)sulfonyl)-N-(6-methoxypyridin-3-yl)cyclopentane-1-carboxamide], the half-maximal inhibitory concentration (IC50) is more than 50 µM in experiment [3]; more than 50 µM in experiment [1] (Leishmania donovani, 72 h); 3.89 ± 0.15 µM in experiment [4] (setting [6]); more than 50 µM in experiment [2] (Leishmania major, 72 h).

Turning to `O=C(Nc1nc2ccccc2nc1N1CCCC1)c1ccc(Cn2cccn2)cc1` [P10, 4-((1H-pyrazol-1-yl)methyl)-N-(3-(pyrrolidin-1-yl)quinoxalin-2-yl)], the “Activity against intracellular amastigote form of Leishmania” value in experiment [5] was “inactive”. Further, the “Growth inhibition of T. brucei (in words)” value in experiment [3] is recorded as “not active”. Also, the concentration for half-maximal inhibition (IC50) in experiment [3] is more than 50 µM; in experiment [1] (Leishmania donovani, 72 h), 3.3 ± 0.23 µM; in experiment [4] (setting [6]) it was ~16 µM and 16.2 µM; in experiment [2] (Leishmania major, 72 h), more than 50 µM. The “Growth inhibition of L. major (in words)” value in experiment [2] is on record as “not active”.

On to `Cc1ccc(C(=O)Nc2nc3ccccc3nc2N2CCCC2)cc1S(C)(=O)=O` [P16], for which the “Growth inhibition of T. brucei (in words)” value in experiment [3] is on record as “not able to inhibit the growth”. The half-maximal inhibitory concentration (IC50) in experiment [3] is more than 50 µM; in experiment [1] (Leishmania donovani, 72 h), more than 50 µM; in experiment [4] (setting [6]) it was ~16 µM and 16.9 µM; in experiment [2] (Leishmania major, 72 h) it was more than 50 µM. The “Growth inhibition of L. donovani (in words)” value in experiment [1] was “not able to inhibit the growth”. Further, the “Growth inhibition of L. major (in words)” value in experiment [2] is recorded as “not able to inhibit the growth”.

Turning to `Cc1cc(C(=O)Nc2cc(C(N)=O)ccc2N2CCCCC2)c2c(C)noc2n1` [P17], the 50% inhibitory concentration (IC50) is more than 50 µM in experiment [3]; more than 50 µM in experiment [1] (Leishmania donovani, 72 h); 25.2 ± 0.89 µM in experiment [4] (setting [6]); more than 50 µM in experiment [2] (Leishmania major, 72 h).

For the molecule `CNc1ccc(Nc2ncnc3sccc23)cn1` [P20, N^2-methyl-N^5-(thieno [2,3-d]pyrimidin-4-yl)pyridine-2,5-diamine], the “Activity against intracellular amastigote form of Leishmania” value in experiment [5] is “inactive”. The “Growth inhibition of T. brucei (in words)” value in experiment [3] was “inhibitory activity”. The half-inhibitory concentration (IC50) in experiment [3] amounted to 3.06 ± 0.38 µM; in experiment [1], 12.2 ± 1.36 µM; in experiment [1] (Leishmania donovani, 72 h) it was 19.2 ± 2.65 µM; in experiment [4] (setting [6]), 16.5 ± 0.79 µM; in experiment [2], 19.2 ± 2.65 µM; in experiment [2] (Leishmania major, 72 h), 12.2 ± 1.36 µM. Further, in experiment [1], the “Growth inhibition of L. donovani (in words)” value is given as “inhibitory activity”. For the same molecule, the “Growth inhibition of L. major (in words)” value in experiment [2] is recorded as “inhibitory activity”.

Regarding `CCc1ncc2c(n1)CN(Cc1cc(=O)n3cccc(C)c3n1)CC2` [P21], the IC50 in experiment [3] is more than 50 µM; in experiment [1] (Leishmania donovani, 72 h), more than 50 µM; in experiment [4] (setting [6]) it was 24.5 ± 1.05 µM; in experiment [2] (Leishmania major, 72 h), more than 50 µM.

For `CCOc1ccc(NC2CCN(Cc3cscn3)CC2)cn1` [P28], the IC50 is more than 50 µM in experiment [3]; more than 50 µM in experiment [1] (Leishmania donovani, 72 h); 16 ± 0.96 µM in experiment [4] (setting [6]); more than 50 µM in experiment [2] (Leishmania major, 72 h).

In the case of `N=C(N)c1ccc(OCCCCCOc2ccc(C(=N)N)cc2)cc1` [Pentamidine, reference compound], in experiment [3], the IC50 worked out at 0.69 ± 0.05 µM.

For ARLASKV [ARLASKV, reference compound], the IC50 in experiment [4] (setting [7]) is more than 60 µM.

On to SGAGSKL [SGAGSKL, reference compound], for which, in experiment [4] (setting [7]), the IC50 amounted to 10.7 µM.

Take TRYPAKL [TRYPAKL, reference compound]: it took 3.61 µM to reach half-maximal inhibition in experiment [4] (setting [7]) (IC50).
